From ChEMBL document CHEMBL2417440, “Experimental and structural testing module to analyze paralogue-specificity and affinity in the Hsp90 inhibitors series” (J Med Chem, 2013)
The source made the active and inactive calls. The calls are words filed in the database; no cut-off is given here.

Assays:
Endoplasmin [1] = biological target: T1, Endoplasmin (Canis lupus familiaris, UniProt P41148); assay: Binding affinity to dog Grp94 by fluorescence polarization assay; details: read-out: Kd(app)
[2] = biological target: T2, Heat shock protein HSP 90-beta (Homo sapiens, UniProt P08238); assay: Binding affinity to recombinant HSP90beta (unknown origin) by fluorescence polarization assay; details: read-out: Kd(app)
T2 sequence (P08238 whole entry): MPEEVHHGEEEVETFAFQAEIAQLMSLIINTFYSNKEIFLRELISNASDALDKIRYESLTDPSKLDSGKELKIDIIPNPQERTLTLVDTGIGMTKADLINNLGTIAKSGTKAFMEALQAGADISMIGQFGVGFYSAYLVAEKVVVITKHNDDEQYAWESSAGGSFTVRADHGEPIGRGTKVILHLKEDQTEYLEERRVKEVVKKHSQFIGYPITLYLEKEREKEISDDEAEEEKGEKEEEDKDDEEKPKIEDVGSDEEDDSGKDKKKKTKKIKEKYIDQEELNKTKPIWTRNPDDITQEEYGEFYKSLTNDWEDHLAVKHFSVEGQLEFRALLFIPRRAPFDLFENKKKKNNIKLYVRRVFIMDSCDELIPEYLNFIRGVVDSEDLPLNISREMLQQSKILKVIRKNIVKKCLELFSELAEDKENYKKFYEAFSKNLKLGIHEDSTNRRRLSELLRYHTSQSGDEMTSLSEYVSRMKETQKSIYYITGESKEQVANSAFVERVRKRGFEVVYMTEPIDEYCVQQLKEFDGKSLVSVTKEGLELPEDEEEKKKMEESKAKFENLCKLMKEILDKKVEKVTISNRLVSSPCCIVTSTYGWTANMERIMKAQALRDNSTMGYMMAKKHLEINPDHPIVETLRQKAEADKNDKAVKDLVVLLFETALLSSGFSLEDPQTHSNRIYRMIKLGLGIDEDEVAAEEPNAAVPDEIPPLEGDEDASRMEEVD

[3] = biological target: T3, Heat shock protein HSP 90-alpha (Homo sapiens, UniProt P07900); assay: Binding affinity to HSP90alpha (unknown origin) by fluorescence polarization assay; details: read-out: Kd(app)
[4] = biological target: T4, Heat shock protein HSP90 (Homo sapiens) (UniProt P07900+P08238); assay: Binding affinity to HSP90 in human SKBR3 cell lysates at 3 nM up to 24 hrs by fluorescence polarization assay; format: protein assay; details: SK-BR-3
[5] = biological target: T5, Heat shock protein 75 kDa, mitochondrial (Homo sapiens, UniProt Q12931)
T5 sequence (Q12931 whole entry): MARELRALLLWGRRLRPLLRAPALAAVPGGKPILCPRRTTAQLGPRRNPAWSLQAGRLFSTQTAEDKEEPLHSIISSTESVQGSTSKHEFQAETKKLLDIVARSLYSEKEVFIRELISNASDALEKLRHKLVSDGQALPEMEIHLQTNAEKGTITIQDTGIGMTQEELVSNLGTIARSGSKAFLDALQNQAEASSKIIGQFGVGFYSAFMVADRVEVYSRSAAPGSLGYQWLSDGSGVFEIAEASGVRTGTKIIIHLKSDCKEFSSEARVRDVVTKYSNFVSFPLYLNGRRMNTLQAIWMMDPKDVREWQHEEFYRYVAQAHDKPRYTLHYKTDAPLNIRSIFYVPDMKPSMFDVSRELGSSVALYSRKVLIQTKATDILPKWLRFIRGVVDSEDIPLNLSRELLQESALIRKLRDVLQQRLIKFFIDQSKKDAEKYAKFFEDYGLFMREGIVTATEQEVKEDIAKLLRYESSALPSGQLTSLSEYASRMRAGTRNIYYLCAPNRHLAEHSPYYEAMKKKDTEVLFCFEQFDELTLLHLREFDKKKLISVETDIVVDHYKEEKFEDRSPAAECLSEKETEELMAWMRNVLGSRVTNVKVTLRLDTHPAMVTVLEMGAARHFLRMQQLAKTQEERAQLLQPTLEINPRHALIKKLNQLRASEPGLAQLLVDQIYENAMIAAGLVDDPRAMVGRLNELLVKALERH
Description: Binding affinity to recombinant human Trap-1 by fluorescence polarization assay

[6] = biological target: T4, Heat shock protein HSP90 (Homo sapiens); assay: Binding affinity to HSP90 in human SKBR3 cell lysates at 3 nM after 8 hrs by fluorescence polarization assay; format: protein assay; details: SK-BR-3
[7] = biological target: Endoplasmin (Homo sapiens) (UniProt P14625); assay: Binding affinity to GRP94 (unknown origin)
Endoplasmin (Homo sapiens), sequence (P14625 whole entry): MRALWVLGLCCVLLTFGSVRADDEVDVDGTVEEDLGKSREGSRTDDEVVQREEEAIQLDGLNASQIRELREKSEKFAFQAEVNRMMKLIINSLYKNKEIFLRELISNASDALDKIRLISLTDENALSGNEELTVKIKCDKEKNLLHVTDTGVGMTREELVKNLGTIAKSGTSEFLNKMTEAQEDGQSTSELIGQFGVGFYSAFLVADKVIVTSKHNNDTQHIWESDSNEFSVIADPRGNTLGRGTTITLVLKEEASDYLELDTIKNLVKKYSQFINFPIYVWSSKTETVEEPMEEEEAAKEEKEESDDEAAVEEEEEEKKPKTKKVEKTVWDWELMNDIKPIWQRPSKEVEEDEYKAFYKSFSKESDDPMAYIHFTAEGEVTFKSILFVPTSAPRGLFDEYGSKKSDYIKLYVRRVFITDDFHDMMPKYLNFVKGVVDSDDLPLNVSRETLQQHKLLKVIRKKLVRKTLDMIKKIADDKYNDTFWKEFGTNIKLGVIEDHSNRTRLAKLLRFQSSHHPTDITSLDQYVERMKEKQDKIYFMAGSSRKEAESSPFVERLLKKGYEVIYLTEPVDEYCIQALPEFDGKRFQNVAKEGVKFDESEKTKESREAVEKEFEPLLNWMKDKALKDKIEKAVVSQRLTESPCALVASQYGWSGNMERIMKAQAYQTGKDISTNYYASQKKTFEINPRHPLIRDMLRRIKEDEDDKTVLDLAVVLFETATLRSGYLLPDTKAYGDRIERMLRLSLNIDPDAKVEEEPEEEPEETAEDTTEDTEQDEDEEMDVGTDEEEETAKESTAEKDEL

[8] = biological target: T2, Heat shock protein HSP 90-beta; assay: Binding affinity to HSP90beta (unknown origin)
[9] = biological target: T3, Heat shock protein HSP 90-alpha; assay: Binding affinity to HSP90alpha (unknown origin)
[10] = biological target: T4, Heat shock protein HSP90 (Homo sapiens); assay: Binding affinity to HSP90 (unknown origin); format: protein assay
[11] = biological target: T5, Heat shock protein 75 kDa, mitochondrial; remark: listed apart in the source
Endoplasmin [12] = biological target: T1, Endoplasmin
[13] = biological target: T2, Heat shock protein HSP 90-beta
[14] = biological target: T3, Heat shock protein HSP 90-alpha
[15] = biological target: T6, Heat shock protein 75 kDa, mitochondrial (Homo sapiens) (UniProt Q12931); assay: Binding affinity to TRAP1 (unknown origin)
T6 sequence (whole entry): T5 sequence (Q12931 whole entry)

Homo sapiens = organism: Homo sapiens; assay: Ratio of binding affinity to HASP90 (unknown origin) to TRAP1 (unknown origin)

T1 sequence (P41148 whole entry): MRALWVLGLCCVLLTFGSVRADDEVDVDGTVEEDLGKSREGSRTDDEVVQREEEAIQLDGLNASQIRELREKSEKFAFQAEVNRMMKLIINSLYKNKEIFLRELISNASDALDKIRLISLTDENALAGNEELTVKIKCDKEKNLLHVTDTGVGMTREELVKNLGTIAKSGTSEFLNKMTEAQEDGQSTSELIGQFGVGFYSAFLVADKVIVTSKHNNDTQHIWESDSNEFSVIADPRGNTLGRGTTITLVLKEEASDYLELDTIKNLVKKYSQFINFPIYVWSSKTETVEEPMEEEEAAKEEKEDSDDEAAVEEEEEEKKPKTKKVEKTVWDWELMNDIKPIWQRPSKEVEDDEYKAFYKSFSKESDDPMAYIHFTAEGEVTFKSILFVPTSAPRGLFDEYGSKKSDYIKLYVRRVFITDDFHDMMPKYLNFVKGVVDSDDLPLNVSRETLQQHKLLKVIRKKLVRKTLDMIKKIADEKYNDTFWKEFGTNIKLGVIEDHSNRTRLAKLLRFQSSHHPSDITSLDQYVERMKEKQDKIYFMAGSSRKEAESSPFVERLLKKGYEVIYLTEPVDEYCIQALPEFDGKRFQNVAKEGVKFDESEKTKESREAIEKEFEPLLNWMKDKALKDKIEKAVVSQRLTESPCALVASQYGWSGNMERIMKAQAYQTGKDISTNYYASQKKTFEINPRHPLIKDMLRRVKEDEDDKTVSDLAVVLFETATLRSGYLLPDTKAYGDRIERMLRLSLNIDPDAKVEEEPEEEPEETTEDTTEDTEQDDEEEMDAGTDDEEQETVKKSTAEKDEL

| Structure (SMILES) | Kd (Endoplasmin [1]) | Kd [2] | Kd [3] | Activity [4] | IC50 [11] | IC50 (Endoplasmin [12]) | other results |
| --- | --- | --- | --- | --- | --- | --- | --- |
| CC(C)N(CCCn1c(Sc2cc3c(cc2I)OCO3)nc2c(N)ncnc21)C(=S)Nc1ccc(-c2c3ccc(=O)cc-3oc3cc(O)ccc23)c(C(=O)O)c1 | 0.0307 µM | 0.0028 µM | 0.0039 µM | Active | – | – | Kd [5]: 0.0058 µM |
| CO[C@H]1/C=C\C=C(/C)C(=O)NC2=CC(=O)C(NCCCCNC(=O)Cc3ccc4c(c3)C(C)(C)C3=[N+]4CCC4OC5CCN6C(=C5C=C34)C(C)(C)c3cc(S(=O)(=O)[O-])ccc36)=C(C[C@@H](C)C[C@H](OC)[C@H](O)[C@@H](C)/C=C(\C)[C@@H]1OC(N)=O)C2=O (stereo partly specified) | 0.0025 µM | 0.0022 µM | 0.0007 µM | – | – | – | Kd [5]: 0.0518 µM |
| Nc1ncnc2c1nc(Sc1cc3c(cc1I)OCO3)n2CCCNC(=S)Nc1ccc(-c2c3ccc(=O)cc-3oc3cc(O)ccc23)c(C(=O)O)c1 | 0.0066 µM | 0.0016 µM | 0.0014 µM | Active | – | – | Activity [6]: Active |
| Nc1ncnc2c1nc(Sc1cc3c(cc1I)OCO3)n2CCCCCCCCNC(=S)Nc1ccc(-c2c3ccc(=O)cc-3oc3cc(O)ccc23)c(C(=O)O)c1 | – | – | – | inactive | – | – | – |
| Nc1ncnc2c1nc(Sc1cc3c(cc1I)OCO3)n2CCCCCCNC(=S)Nc1ccc(-c2c3ccc(=O)cc-3oc3cc(O)ccc23)c(C(=O)O)c1 | – | – | – | Active | – | – | – |
| Nc1ncnc2c1nc(Sc1cc3c(cc1I)OCO3)n2CCCCNC(=S)Nc1ccc(-c2c3ccc(=O)cc-3oc3cc(O)ccc23)c(C(=O)O)c1 | – | – | – | Active | – | – | – |
| Nc1ncnc2c1ncn2[C@@H]1O[C@H](COP(=O)(O)OP(=O)(O)O)[C@@H](O)[C@H]1O [ADENOSINE DIPHOSPHATE] | – | – | – | – | 55.6 µM | 11.4 µM | Activity [7]: 2.3 µM; Activity [8]: 34 µM; Activity [9]: 51 µM; Activity [10]: 41 µM; IC50 [13]: 42.2 µM; IC50 [14]: 59.3 µM |
| Nc1ncnc2c1ncn2[C@@H]1O[C@H](COP(=O)(O)OP(=O)(O)OP(=O)(O)O)[C@@H](O)[C@H]1O [ADENOSINE TRIPHOSPHATE] | – | – | – | – | 31.3 µM | 3.24 µM | Activity [15]: 31.3 µM; Ratio (Homo sapiens): 10; Activity [7]: 3.4 µM; Activity [10]: 840 µM; IC50 [13]: 894 µM; IC50 [14]: 861 µM |
| CC(C)c1cc(-c2n[nH]c(=O)n2-c2ccc3c(ccn3C)c2)c(O)cc1O [GANETESPIB] | – | – | – | – | – | 0.01 µM | – |
| C=CCNC1=C2C[C@@H](C)C[C@H](OC)[C@H](O)[C@@H](C)/C=C(\C)[C@H](OC(N)=O)[C@@H](OC)/C=C\C=C(/C)C(=O)NC(=CC1=O)C2=O [TANESPIMYCIN] | – | – | – | – | 1.5 µM | 0.031 µM | – |
